The results in this text go back to patent US20250275995A1, “NICOTINAMIDE RIBOSIDE DOSAGE REGIMEN FOR TREATING PARKINSON'S DISEASE” (VESTLANDETS INNOVASJONSSELSKAP AS (VIS), priority 2022, published 2025).

Common to all, as to format: in vivo, human
Series [1] deals with Parkinson's Disease (PD). The series can be described thus: NADPARK: clinical severity by MDS-UPDRS. How it is done: (§1) The present inventors completed a phase I randomized, double blinded trial, aiming to assess the tolerability, cerebral bioavailability and molecular effects of NR therapy in PD. A total of 30 individuals with newly diagnosed, drug-naïve PD were randomized to NR 500 mg×2/day or placebo for 30 days (Cell Metab. 2022 Mar. 1; 34(3):396-407.e6).
NR is associated with clinical improvement of PD. NR at 1000 mg daily was associated with a significant decrease in the total MDS-UPDRS (I-III) score between visits (mean decrease: 2.33±2.35; paired t-test: p=0.017).

The test system of series [2] is NAD metabolome. The series can be described thus: NADPARK: metabolomics, RNA-sequencing and cytokines in blood, muscle, CSF. Particulars: NR 1000 mg daily. Here is the method:
A-C: 31P-MRS was performed at baseline (v1) and after 30 days of treatment (v2). A: exemplary data from one subject showing voxel position. Spectra were acquired for each grid position. B (top): average processed spectra from multiple voxels (black) and the model fit (red). B (bottom): the model fit is composed of the convolution of all spectral contributions of a simulated dataset fitted to the experimental data. […] PCr: phosphocreatine. C: comparison of cerebral NAD levels in the placebo (PL) and NR groups at baseline (v1) and visit-2 (v2). […] Individual subjects are indicated by dots. Connecting lines show the change between v1 and v2. The black points and lines show the mean of each group. […] D: FDG-PET data from all subjects in the NR-group, showing the mean NR-Related Pattern (NRRP, top panel), PD-related pattern (PRDP, middle panel), and the overlap of the two (bottom panel). NR partially ameliorates the striatal and thalamic hypermetabolism of PD. E: Between visit changes showing increased NRRP expression in the NR versus the placebo group. The red line indicates mean values before and after the treatment, black lines indicate individuals with a positive NAD response in the MRS analysis, grey lines indicate individuals without an NAD response in the MRS (*p=0.027, permutation test, 1000 iterations). […] G: Metabolomics in PBMCs, muscle, and CSF.
NR has widespread metabolic and regulatory effects. […] These findings indicate that NR supplementation increases both mitochondrial respiration and proteostasis—two hallmark pathogenic processes involved in PD.

Series [3] has as its system individuals with newly diagnosed, drug-naïve PD. Briefly: NADPARK phase I trial: tolerability of NR therapy (1000 mg per day, 30 days) in PD. Here is the method:
as §1
NR is well-tolerated. […] NR achieves brain penetration. […] While a significant NR-induced increase in cerebral NAD levels was detected at the group level, this effect was not uniform at the individual level.

Series [4] concerns brain NAD levels. The series can be described thus: NAD-brain pharmacokinetic study: brain NAD by 31P-MRS. Particulars: 1200 mg daily for 8 days. Here is the method:
• At screening, participants are assessed for eligibility, inclusion/exclusion criteria, medical history and concomitant medication is recorded, and informed consent signed. • The NAD-brain study performs a parallel assessment of NAD replenishment therapy pharmacokinetics in the blood and brain of healthy human subjects and subjects with Parkinson's disease (PD). Healthy individuals and individuals with PD undergo repeated blood sampling and 31P-MRS brain scans during two 20-day periods, each of which starts with 8 days of daily intake of NR 600 mg×2, or NMN 600 mg×2 (Table 10). • For each 20-day period the testing (i.e., scanning and blood draw) frequency is shown in Table 10, below. The two 20-day periods are 14 days apart to allow for washout of the previous compound. This is a pharmacokinetic (PK) study where 6 healthy individuals (3 male and 3 female): • 1) Received NR 1200 mg daily (600 mg×2) for 8 days, followed by an additional 11 days follow up, while undergoing serial blood and brain NAD-measurement. • 2) Received NMN 1200 mg daily (600 mg×2) for 8 days, followed by an additional 11 days follow up, while undergoing serial blood and brain NAD-measurement. The individuals were mixed, so that in stage-1 three individuals received NR and three individuals received NMN, then in stage-2 they switched (Cross-over design). There were almost three weeks (20 days) of washout between the last dose of the first compound, and before the first dose of the second compounds. In the brain, total NAD (NAD^++NADH) levels were measured by 31P-MRS as previously described^19. […] 19 Brakedal, B. et al. The […] study: A randomized phase I trial of nicotinamide riboside supplementation in Parkinson's disease. Cell Metab 34, 396-407.e6 (2022).

The subject of series [5] is cerebral NAD levels. Briefly: NADPARK: cerebral NAD levels by 31P-MRS. Here is the method:
A-C: 31P-MRS was performed at baseline (v1) and after 30 days of treatment (v2). A: exemplary data from one subject showing voxel position. Spectra were acquired for each grid position. B (top): average processed spectra from multiple voxels (black) and the model fit (red). B (bottom): the model fit is composed of the convolution of all spectral contributions of a simulated dataset fitted to the experimental data. […] PCr: phosphocreatine. C: comparison of cerebral NAD levels in the placebo (PL) and NR groups at baseline (v1) and visit-2 (v2). […] Individual subjects are indicated by dots. Connecting lines show the change between v1 and v2. The black points and lines show the mean of each group. […] D: FDG-PET data from all subjects in the NR-group, showing the mean NR-Related Pattern (NRRP, top panel), PD-related pattern (PRDP, middle panel), and the overlap of the two (bottom panel). NR partially ameliorates the striatal and thalamic hypermetabolism of PD. E: Between visit changes showing increased NRRP expression in the NR versus the placebo group. […]
NR is well-tolerated. […] While a significant NR-induced increase in cerebral NAD levels was detected at the group level, this effect was not uniform at the individual level.
Cerebral NAD levels, such as NAD/α-ATP-α molar ratios, can be calculated by using ^31P spectroscopy data from magnetic resonance imaging and spectroscopy (MRI/S) e.g., as shown in FIG. 1B. […] For instance, an anatomical T1-weighted image with the following sequence parameters can be acquired to aid positioning of the ^31P-imaging slab: MPRAGE 3D T1-weighted sagittal volume, TE/TR/TI=2.26 ms/2.4 s/900 ms, acquisition matrix=256×256×192, FOV=256×256×192 mm3, 200 Hz/px readout bandwidth, flip angle=8 degrees and total acquisition duration of 5.6 minutes. ^31P spectroscopy data can then be acquired using a 3D chemical shift imaging (CSI) FID sequence with WALTZ4 1H decoupling and continuous wave nuclear Overhauser effect (NOE) enhancement (Peeters et al., NMR Biomed. 2019; 34: e4169). […]

“Also recorded” adds a separate entry of the source.

In the case of `NC(=O)c1ccc[n+]([C@@H]2O[C@H](CO)[C@@H](O)[C@H]2O)c1` [NR, nicotinamide riboside], the “mean decrease in total MDS-UPDRS (I-III) score between visits” value in series [1] (NR 1000 mg daily, as stated in first sentence) amounted to 2.33±2.35. For the same molecule, the “change in MDS-UPDRS (total or subsections I-III)” value in series [1] (NR 1000 mg daily, whole NR group) was “No significant change”. Further, the results for the “mean decrease in MDS-UPDRS” value in series [1] (nine individuals showing >10% increase in cerebral NAD levels) and in series [1] (subgroup of ten NR-recipients with increased cerebral NAD levels) were 2.33±2.35 and 1.9±2.78, respectively. Besides, in series [2] (30 days, metabolomics), the “NAD-related metabolites in blood (PBMC), muscle and CSF” value is “highly significant (p<<0.001 for all tests) increases in the acid form of NAD (NAAD), and nicotinamide (Nam) degradation products; also recorded: highly significant increase in NAD-related metabolites in blood, muscle and CSF”. Besides, the “RNA-sequencing in blood and muscle biopsy” value in series [2] (NR group) is “highly significant (FDR<10^−8) upregulation of the mitochondrial, proteasomal and lysosomal pathways”. Moreover, the “inflammatory cytokines in the central nervous system” value in series [2] (Phase I study) is reported as “downregulates multiple inflammatory cytokines in the central nervous system”. For the same molecule, in series [3] (NR 1000 mg daily, Phase I study), the serum homocysteine levels result is listed as “no change in serum homocysteine levels”. For the same molecule, the “compliance, tolerability, toxicity” value in series [3] (NR 1000 mg per day, 30 days, PD) was “excellent compliance, tolerability and no signs of toxicity or adverse side effects”. In addition, in series [4] (31P-MRS, day 9 (NR), day 8 (NMN)), the “brain NAD levels, baseline vs day of maximal blood NAD” value is “significant increase in brain NAD levels”. In addition, the “NAD levels at day 19” value in series [4] (11 days after last dose) was “remained elevated”. The “increase in cerebral NAD-levels” value in series [5] (1000 mg NR, treatment group, mean (SD=20%)) was 38%. In addition, the “patients with no evidence of cerebral NAD response” value in series [5] (NR 1000 mg per day, 30 days) is reported as “three”. In series [5] (NR 1000 mg per day, baseline vs 30 days, NR group), the “change in cerebral NAD levels (31P-MRS)” value is listed as “highly significant (paired t-test: P=0.016) increase in cerebral NAD levels”.
